pIC50: −log10 of the molar value.
Assays:
[1] = target: T1, WEE1 (Homo sapiens, UniProt P30291+Q96SW2); test: Western-blot assay of substrate protein degradation in hPBMCs, WEE1; type: cell-based; settings: 24 hours of compound treatment
T1 construct: endogenous in cells; host or cells: hPBMCs (Milecell Biotechnologies)

[2] = target: T2, GSPT1 (Homo sapiens, UniProt P15170+Q96SW2); test: Western-blot assay of substrate protein degradation in hPBMCs, GSPT1; type: cell-based; settings: 24 hours of compound treatment
T2 construct: endogenous in cells; host or cells: hPBMCs (Milecell Biotechnologies)

[3] = target: T3, IKZF1 (Homo sapiens, UniProt Q13422+Q96SW2); test: Western-blot assay of substrate protein degradation in hPBMCs, IKZF1; type: cell-based; settings: 24 hours of compound treatment
T3 construct: endogenous in cells; host or cells: hPBMCs (Milecell Biotechnologies)

[4] = target: T4, CK1α (Homo sapiens, UniProt P48729+Q96SW2); test: Western-blot assay of substrate protein degradation in hPBMCs, CK1α; type: cell-based; settings: 24 hours of compound treatment
T4 construct: endogenous in cells; host or cells: hPBMCs (Milecell Biotechnologies)

[5] = tested on: Human acute T lymphocytic leukemia cells (Molt-4); test: Tumor cell proliferation inhibition (CellTiter-Meiluncell Luminescent Cell Viability Assay), Molt-4; settings: MOLT-4, 96 h, read-out: inhibitory activity (IC50, nM) against tumor cells proliferation, Molt 4
[6] = target: T5, IKZF3 (Homo sapiens, UniProt Q96SW2+Q9UKT9); test: Western-blot assay of substrate protein degradation in hPBMCs, IKZF3; type: cell-based; settings: 24 hours of compound treatment
T5 construct: endogenous in cells; host or cells: hPBMCs (Milecell Biotechnologies)

[7] = target: T6, human Cereblon WT GST-tagged protein (Homo sapiens, UniProt Q96SW2); test: CRBN-binding affinity by HTRF (CEREBLON BINDING kit); settings: HTRF inhibitory activity, CEREBLON BINDING kit; read-out: HTRF IC50
T6 construct: purchased CISBIO 64BDCRBNPEH

[8] = target: T7, IKZF2 (Homo sapiens, UniProt Q96SW2+Q9UKS7); test: Western-blot assay of substrate protein degradation in hPBMCs, IKZF2; type: cell-based; settings: 24 hours of compound treatment
T7 construct: endogenous in cells; host or cells: hPBMCs (Milecell Biotechnologies)

[9] = compounds tested at 50 nM and 500 nM (concentration of the table not stated)
[10] = 50 nM and 500 nM tested (concentration behind the class not stated)

T1 sequence (P30291 whole entry): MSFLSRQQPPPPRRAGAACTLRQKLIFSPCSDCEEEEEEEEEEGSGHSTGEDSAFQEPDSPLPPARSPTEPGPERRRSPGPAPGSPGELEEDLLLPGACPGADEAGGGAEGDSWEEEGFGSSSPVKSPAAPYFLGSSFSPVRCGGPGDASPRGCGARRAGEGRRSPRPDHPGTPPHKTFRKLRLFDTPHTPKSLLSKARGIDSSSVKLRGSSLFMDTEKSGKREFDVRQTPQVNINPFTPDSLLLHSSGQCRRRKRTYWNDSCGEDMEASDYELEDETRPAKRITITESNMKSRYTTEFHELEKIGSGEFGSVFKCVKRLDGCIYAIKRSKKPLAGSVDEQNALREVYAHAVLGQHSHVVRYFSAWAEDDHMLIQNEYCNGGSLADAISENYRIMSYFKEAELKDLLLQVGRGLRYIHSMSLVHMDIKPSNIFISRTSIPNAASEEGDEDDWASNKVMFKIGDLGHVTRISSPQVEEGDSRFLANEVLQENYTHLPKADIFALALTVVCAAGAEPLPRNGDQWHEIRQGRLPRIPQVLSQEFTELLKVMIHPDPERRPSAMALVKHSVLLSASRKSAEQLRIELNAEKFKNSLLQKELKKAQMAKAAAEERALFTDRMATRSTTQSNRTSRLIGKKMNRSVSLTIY
T1 sequence (Q96SW2 whole entry): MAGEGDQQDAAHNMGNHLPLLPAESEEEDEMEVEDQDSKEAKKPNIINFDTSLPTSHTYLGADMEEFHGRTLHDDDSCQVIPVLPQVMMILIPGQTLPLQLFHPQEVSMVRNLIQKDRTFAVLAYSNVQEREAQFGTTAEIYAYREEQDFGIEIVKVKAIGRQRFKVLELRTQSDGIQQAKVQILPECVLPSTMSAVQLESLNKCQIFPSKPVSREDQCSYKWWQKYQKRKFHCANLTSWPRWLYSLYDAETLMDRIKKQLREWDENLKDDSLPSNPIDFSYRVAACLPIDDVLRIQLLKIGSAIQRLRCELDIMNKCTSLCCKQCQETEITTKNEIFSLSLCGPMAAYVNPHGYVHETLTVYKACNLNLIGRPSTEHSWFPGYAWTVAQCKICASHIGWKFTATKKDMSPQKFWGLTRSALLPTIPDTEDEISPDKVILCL
T1 sequence (Q16531 whole entry partner): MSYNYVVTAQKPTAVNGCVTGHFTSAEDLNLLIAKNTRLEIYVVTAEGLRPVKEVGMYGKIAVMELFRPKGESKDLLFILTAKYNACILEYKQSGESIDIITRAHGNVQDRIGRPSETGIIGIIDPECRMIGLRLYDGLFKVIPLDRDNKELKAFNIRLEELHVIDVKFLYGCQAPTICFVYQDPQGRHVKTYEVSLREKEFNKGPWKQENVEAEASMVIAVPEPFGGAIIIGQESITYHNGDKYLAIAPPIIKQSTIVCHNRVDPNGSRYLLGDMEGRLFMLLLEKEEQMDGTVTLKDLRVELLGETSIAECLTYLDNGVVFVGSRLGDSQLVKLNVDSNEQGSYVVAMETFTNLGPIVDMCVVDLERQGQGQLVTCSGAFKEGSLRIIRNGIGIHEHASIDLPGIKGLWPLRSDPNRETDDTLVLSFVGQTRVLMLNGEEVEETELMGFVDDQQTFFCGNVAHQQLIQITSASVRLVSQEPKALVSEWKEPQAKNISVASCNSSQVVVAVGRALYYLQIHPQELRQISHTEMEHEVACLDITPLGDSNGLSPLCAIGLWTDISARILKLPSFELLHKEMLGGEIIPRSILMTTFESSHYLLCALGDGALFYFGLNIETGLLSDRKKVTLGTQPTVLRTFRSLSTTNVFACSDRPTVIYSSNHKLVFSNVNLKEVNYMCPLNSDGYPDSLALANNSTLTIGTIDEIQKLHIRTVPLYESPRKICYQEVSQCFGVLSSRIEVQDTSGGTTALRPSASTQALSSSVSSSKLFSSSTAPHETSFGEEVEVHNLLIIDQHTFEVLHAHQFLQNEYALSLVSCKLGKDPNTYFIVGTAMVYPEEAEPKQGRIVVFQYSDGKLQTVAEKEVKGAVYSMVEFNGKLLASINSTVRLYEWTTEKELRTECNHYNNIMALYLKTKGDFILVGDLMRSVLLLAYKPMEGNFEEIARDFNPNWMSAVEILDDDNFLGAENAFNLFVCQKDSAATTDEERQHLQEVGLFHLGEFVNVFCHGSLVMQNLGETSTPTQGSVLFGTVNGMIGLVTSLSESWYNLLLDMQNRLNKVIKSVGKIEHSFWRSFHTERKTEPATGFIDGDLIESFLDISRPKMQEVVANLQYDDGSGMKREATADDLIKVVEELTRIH
T2 sequence (P15170 whole entry): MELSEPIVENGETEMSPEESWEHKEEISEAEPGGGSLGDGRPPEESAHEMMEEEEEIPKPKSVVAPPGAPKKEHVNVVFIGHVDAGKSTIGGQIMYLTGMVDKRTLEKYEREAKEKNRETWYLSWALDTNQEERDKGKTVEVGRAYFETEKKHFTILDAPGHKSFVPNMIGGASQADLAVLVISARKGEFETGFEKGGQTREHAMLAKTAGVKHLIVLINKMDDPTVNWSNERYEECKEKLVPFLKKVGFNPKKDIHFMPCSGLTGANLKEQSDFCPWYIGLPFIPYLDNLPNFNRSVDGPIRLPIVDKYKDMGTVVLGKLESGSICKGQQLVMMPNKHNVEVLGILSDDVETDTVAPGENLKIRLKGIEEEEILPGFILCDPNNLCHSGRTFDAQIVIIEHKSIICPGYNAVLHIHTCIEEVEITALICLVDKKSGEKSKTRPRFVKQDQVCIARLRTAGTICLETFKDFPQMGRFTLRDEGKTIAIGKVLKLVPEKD
T2 sequence (Q96SW2 whole entry): as the sequence (Q96SW2 whole entry) above
T2 sequence (Q16531 whole entry partner): as the sequence (Q16531 whole entry partner) above
T5 sequence (Q9UKT9 whole entry): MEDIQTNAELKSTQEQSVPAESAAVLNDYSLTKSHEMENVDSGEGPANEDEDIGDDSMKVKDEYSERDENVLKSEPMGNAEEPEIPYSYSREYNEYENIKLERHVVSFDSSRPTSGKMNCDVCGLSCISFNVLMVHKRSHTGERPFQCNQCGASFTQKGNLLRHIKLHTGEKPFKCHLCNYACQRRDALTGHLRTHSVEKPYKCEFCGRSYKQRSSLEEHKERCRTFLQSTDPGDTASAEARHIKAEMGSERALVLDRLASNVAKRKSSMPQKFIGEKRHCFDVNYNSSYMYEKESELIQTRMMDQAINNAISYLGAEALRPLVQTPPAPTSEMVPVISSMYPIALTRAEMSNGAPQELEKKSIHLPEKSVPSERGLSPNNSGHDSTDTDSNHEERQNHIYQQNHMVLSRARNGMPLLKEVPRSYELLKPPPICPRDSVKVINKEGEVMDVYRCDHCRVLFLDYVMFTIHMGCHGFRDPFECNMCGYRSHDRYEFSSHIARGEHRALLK
T5 sequence (Q96SW2 whole entry): as the sequence (Q96SW2 whole entry) above
T5 sequence (Q16531 whole entry partner): as the sequence (Q16531 whole entry partner) above
T6 sequence (Q96SW2 whole entry): as the sequence (Q96SW2 whole entry) above
T3 sequence (Q13422 whole entry): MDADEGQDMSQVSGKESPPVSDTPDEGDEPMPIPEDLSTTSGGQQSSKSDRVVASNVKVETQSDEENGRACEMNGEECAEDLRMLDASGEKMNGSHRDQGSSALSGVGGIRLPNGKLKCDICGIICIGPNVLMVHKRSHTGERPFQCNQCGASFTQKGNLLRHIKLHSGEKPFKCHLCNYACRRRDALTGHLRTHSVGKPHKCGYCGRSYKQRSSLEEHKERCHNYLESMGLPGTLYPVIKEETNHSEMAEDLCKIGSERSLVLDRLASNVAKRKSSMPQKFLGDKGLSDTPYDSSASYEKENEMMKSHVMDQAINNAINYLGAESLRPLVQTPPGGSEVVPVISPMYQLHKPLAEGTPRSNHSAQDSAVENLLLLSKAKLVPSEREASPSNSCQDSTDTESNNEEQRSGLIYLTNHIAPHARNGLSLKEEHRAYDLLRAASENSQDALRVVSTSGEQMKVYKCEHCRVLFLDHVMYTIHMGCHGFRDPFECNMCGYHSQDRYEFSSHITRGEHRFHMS
T3 sequence (Q96SW2 whole entry): as the sequence (Q96SW2 whole entry) above
T3 sequence (Q16531 whole entry partner): as the sequence (Q16531 whole entry partner) above
T7 sequence (Q9UKS7 whole entry): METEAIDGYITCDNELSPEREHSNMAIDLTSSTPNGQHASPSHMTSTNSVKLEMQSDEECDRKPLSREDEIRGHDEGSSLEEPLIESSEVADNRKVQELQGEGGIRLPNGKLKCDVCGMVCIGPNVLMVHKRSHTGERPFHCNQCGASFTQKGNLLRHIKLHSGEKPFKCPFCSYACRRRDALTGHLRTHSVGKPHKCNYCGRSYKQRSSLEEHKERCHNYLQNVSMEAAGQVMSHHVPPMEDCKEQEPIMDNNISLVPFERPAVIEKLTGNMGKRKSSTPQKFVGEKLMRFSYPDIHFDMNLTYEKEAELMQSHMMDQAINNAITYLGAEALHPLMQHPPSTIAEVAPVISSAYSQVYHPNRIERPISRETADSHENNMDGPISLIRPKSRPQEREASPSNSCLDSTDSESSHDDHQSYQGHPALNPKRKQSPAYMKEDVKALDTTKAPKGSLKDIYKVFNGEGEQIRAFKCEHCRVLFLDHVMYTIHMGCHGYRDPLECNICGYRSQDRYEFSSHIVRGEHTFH
T7 sequence (Q96SW2 whole entry): as the sequence (Q96SW2 whole entry) above
T7 sequence (Q16531 whole entry partner): as the sequence (Q16531 whole entry partner) above

Compound | Weel substrate protein remaining % [1, 9] | GSPT1 substrate protein remaining % [2, 9] | IKZF 1 substrate protein remaining % [3, 9] | CK1a substrate protein remaining % [4, 9] | IC50 [5] | IKZF3 substrate protein remaining % [6, 9] | pIC50 [7] | IKZF2 substrate protein remaining % [8, 9] | Weel substrate protein remaining % [1, 10] | GSPT1 substrate protein remaining % [2, 10] | IKZF 1 substrate protein remaining % [3, 10] | CK1a substrate protein remaining % [4, 10] | IKZF3 substrate protein remaining % [6, 10] | IKZF2 substrate protein remaining % [8, 10]
Cc1ccsc1N1CCN(Cc2ccc3c(c2)CN(C2CCC(=O)NC2=O)C3=O)CC1 (centres unmarked) [GT-04582, 3-(5-((4-(3-methylthiophen-2-yl)piperazin-1-yl)methyl)-1-oxoisoindolin-2-yl)piperidine-2,6-dione] | A (0% ≤ substrate protein remaining % ≤ 80%) | A (0% ≤ substrate protein remaining % ≤ 80%) | A (0% ≤ substrate protein remaining % ≤ 80%) | B (80%< substrate protein remaining %≤ 100%) | 50 to 100 nM | A (0% ≤ substrate protein remaining % ≤ 80%) | > 6.30 | A (0% ≤ substrate protein remaining % ≤ 80%) | – | – | – | – | – | –
O=C1CCC(N2Cc3cc(CN4CCN(c5nccc(Cl)c5F)CC4)ccc3C2=O)C(=O)N1 (centres unmarked) [GT-04610, 3-(5-((4-(4-chloro-3-fluoropyridin-2-yl)piperazin-1-yl)methyl)-1-oxoisoindolin-2-yl)piperidine-2,6-dione] | A (0% ≤ substrate protein remaining % ≤ 80%) | A (0% ≤ substrate protein remaining % ≤ 80%) | A (0% ≤ substrate protein remaining % ≤ 80%) | A (0% ≤ substrate protein remaining % ≤ 80%) | 500 to 1000 nM | A (0% ≤ substrate protein remaining % ≤ 80%) | 6.00 to 6.30 | A (0% ≤ substrate protein remaining % ≤ 80%) | – | – | – | – | – | –
O=C1CCC(N2Cc3cc(CN4CCC(c5ccco5)CC4)ccc3C2=O)C(=O)N1 (centres unmarked) [GT-04618, 3-(5-((4-(furan-2-yl)piperidin-1-yl)methyl)-1-oxoisoindolin-2-yl)piperidine-2,6-dione] | A (0% ≤ substrate protein remaining % ≤ 80%) | A (0% ≤ substrate protein remaining % ≤ 80%) | A (0% ≤ substrate protein remaining % ≤ 80%) | B (80%< substrate protein remaining %≤ 100%) | 50 to 100 nM | A (0% ≤ substrate protein remaining % ≤ 80%) | 6.00 to 6.30 | A (0% ≤ substrate protein remaining % ≤ 80%) | – | – | – | – | – | –
O=C1CCC(N2Cc3cc(CN4CC(c5ccnc6cc(F)ccc56)C4)ccc3C2=O)C(=O)N1 (centres unmarked) [GT-04651, 3-(5-((3-(7-fluoroquinolin-4-yl)azetidin-1-yl)methyl)-1-oxoisoindolin-2-yl)piperidine-2,6-dione] | B (80%< substrate protein remaining %≤ 100%) | A (0% ≤ substrate protein remaining % ≤ 80%) | A (0% ≤ substrate protein remaining % ≤ 80%) | A (0% ≤ substrate protein remaining % ≤ 80%) | 500 to 1000 nM | A (0% ≤ substrate protein remaining % ≤ 80%) | > 6.30 | A (0% ≤ substrate protein remaining % ≤ 80%) | – | – | – | – | – | –
O=C1CCC(N2Cc3cc(CN4CCC(c5cccc6c(F)cccc56)CC4)ccc3C2=O)C(=O)N1 (centres unmarked) [GT-04664, 3-(5-((4-(5-fluoronaphthalen-1-yl)piperidin-1-yl)methyl)-1-oxoisoindolin-2-yl)piperidine-2,6-dione] | A (0% ≤ substrate protein remaining % ≤ 80%) | A (0% ≤ substrate protein remaining % ≤ 80%) | A (0% ≤ substrate protein remaining % ≤ 80%) | A (0% ≤ substrate protein remaining % ≤ 80%) | 100 to 500 nM | A (0% ≤ substrate protein remaining % ≤ 80%) | 6.00 to 6.30 | A (0% ≤ substrate protein remaining % ≤ 80%) | – | – | – | – | – | –
Cc1csc2ncnc(C3=CCN(Cc4ccc5c(c4)CN(C4CCC(=O)NC4=O)C5=O)CC3)c12 (centres unmarked) [GT-04703, 3-(5-((4-(5-methylthieno[2,3-d]pyrimidin-4-yl)-3,6-dihydropyridin-1(2H)-yl)methyl)-1-oxoisoindolin-2-yl)piperidine-2,6-dione] | B (80%< substrate protein remaining %≤ 100%) | A (0% ≤ substrate protein remaining % ≤ 80%) | A (0% ≤ substrate protein remaining % ≤ 80%) | A (0% ≤ substrate protein remaining % ≤ 80%) | 100 to 500 nM | A (0% ≤ substrate protein remaining % ≤ 80%) | 6.00 to 6.30 | A (0% ≤ substrate protein remaining % ≤ 80%) | – | – | – | – | – | –
O=C1CCC(N2Cc3cc(CN4CCN(c5nc(N6CCOCC6)nc6c5SCC6)CC4)ccc3C2=O)C(=O)N1 (centres unmarked) [GT-04710, 3-(5-((4-(2-morpholino-6,7-dihydrothieno[3,2-d]pyrimidin-4-yl)piperazin-1-yl)methyl)-1-oxoisoindolin-2-yl)piperidine-2,6-dione] | B (80%< substrate protein remaining %≤ 100%) | A (0% ≤ substrate protein remaining % ≤ 80%) | B (80%< substrate protein remaining %≤ 100%) | A (0% ≤ substrate protein remaining % ≤ 80%) | 500 to 1000 nM | A (0% ≤ substrate protein remaining % ≤ 80%) | > 6.30 | B (80%< substrate protein remaining %≤ 100%) | – | – | – | – | – | –
O=C1CCC(N2Cc3cc(CN4CC(n5cnc6cc(F)ccc65)C4)ccc3C2=O)C(=O)N1 (centres unmarked) [GT-04716, 3-(5-((3-(5-fluoro-1H-benzo[d]imidazol-1-yl)azetidin-1-yl)methyl)-1-oxoisoindolin-2-yl)piperidine-2,6-dione] | B (80%< substrate protein remaining %≤ 100%) | A (0% ≤ substrate protein remaining % ≤ 80%) | B (80%< substrate protein remaining %≤ 100%) | B (80%< substrate protein remaining %≤ 100%) | 100 to 500 nM | B (80%< substrate protein remaining %≤ 100%) | 6.00 to 6.30 | B (80%< substrate protein remaining %≤ 100%) | – | – | – | – | – | –
Cc1ccsc1C1=CCN(Cc2cccc3c2C(=O)N(C2CCC(=O)NC2=O)C3=O)CC1 (centres unmarked) [GT-04731, 2-(2,6-dioxopiperidin-3-yl)-4-((4-(3-methylthiophen-2-yl)-3,6-dihydropyridin-1(2H)-yl)methyl)isoindoline-1,3-dione] | B (80%< substrate protein remaining %≤ 100%) | A (0% ≤ substrate protein remaining % ≤ 80%) | B (80%< substrate protein remaining %≤ 100%) | B (80%< substrate protein remaining %≤ 100%) | 500 to 1000 nM | B (80%< substrate protein remaining %≤ 100%) | – | B (80%< substrate protein remaining %≤ 100%) | – | – | – | – | – | –
O=C1CCC(N2C(=O)c3ccc(CN4CCC(c5c[nH]c6ncccc56)CC4)cc3C2=O)C(=O)N1 (centres unmarked) [GT-06705, 5-((4-(1H-pyrrolo[2,3-b]pyridin-3-yl)piperidin-1-yl)methyl)-2-(2,6-dioxopiperidin-3-yl)isoindoline-1,3-dione] | – | – | – | – | – | – | 5.72 to 5.82 | – | A (0% ≤ substrate protein remaining % ≤ 80%) | A (0% ≤ substrate protein remaining % ≤ 80%) | B (80%< substrate protein remaining %≤ 100%) | B (80%< substrate protein remaining %≤ 100%) | B (80%< substrate protein remaining %≤ 100%) | B (80%< substrate protein remaining %≤ 100%)
O=C1CCC(N2Cc3cc(CNC45CC6CC(CC(C6)C4)C5)ccc3C2=O)C(=O)N1 (centres unmarked) [GT-06913, 3-(5-((((3s,5s,7s)-adamantan-1-yl)amino)methyl)-1-oxoisoindolin-2-yl)piperidine-2,6-dione] | – | – | – | – | – | – | 5.72 to 5.82 | – | A (0% ≤ substrate protein remaining % ≤ 80%) | A (0% ≤ substrate protein remaining % ≤ 80%) | A (0% ≤ substrate protein remaining % ≤ 80%) | A (0% ≤ substrate protein remaining % ≤ 80%) | B (80%< substrate protein remaining %≤ 100%) | A (0% ≤ substrate protein remaining % ≤ 80%)
CC1(C)[C@@H]2CC[C@]1(CS(=O)(=O)NCc1ccc3c(c1)CN(C1CCC(=O)NC1=O)C3=O)C(=O)C2 (some centres unmarked) [GT-06927] | – | – | – | – | – | – | 6.00 to 6.30 | – | B (80%< substrate protein remaining %≤ 100%) | B (80%< substrate protein remaining %≤ 100%) | B (80%< substrate protein remaining %≤ 100%) | A (0% ≤ substrate protein remaining % ≤ 80%) | B (80%< substrate protein remaining %≤ 100%) | B (80%< substrate protein remaining %≤ 100%)

— patent publication EP4745137A1 (Gluetacs Therapeutics (Shanghai) Co., Ltd., priority 2023, dated 2025)
